Source: US10206394B2, “Herbicidal compounds” (Syngenta Participations AG, priority 2014, dated 2019)
Where two headings read alike, the source gives them in different places.

Columns and labels:
Format in all cases: in vivo
Lolium perenne (LOLPE) = assay: Glasshouse assay for herbicidal activity (pre- and post-emergence), percentage phytotoxicity; conditions: Lolium perenne, Rate 250 g/ha, 100%=total damage, 0%=no damage
How it was run: (§1)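 Herbicide was applied to potted plants sown in standard soil, one day after sowing for PRE and after about 12 days for POST. Visual percentage damage ratings followed at 15 DAA (POST) and 20 DAA (PRE).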

[1] = tested on: Alopecurus myosuroides (ALOMY); assay: as above; conditions: Alopecurus myosuroides, Rate 250 g/ha, 100%=total damage, 0%=no damage
How it was run: as §1

Avena fatua (AVEFA) = assay: as above; conditions: Avena fatua, Rate 250 g/ha, 100%=total damage, 0%=no damage
How it was run: as §1

[2] = tested on: Echinochloa crus-galli (ECHCG); assay: as above; conditions: Echinochloa crus-galli, Rate 250 g/ha, 100%=total damage, 0%=no damage
How it was run: as §1

[3] = tested on: Winter Wheat variety 'Hereward'; assay: Glasshouse assay for crop safety, post-emergence, +/- safener cloquintocet-mexyl (CQC), percentage phytotoxicity; conditions: 250 g/ha, evaluated after 13 days, 100=total damage, 0=no damage; for Post-emergence Crop Selectivity, percentage phytotoxicity, Wheat +CQC: with safener cloquintocet-mexyl (CQC) seed treatment 0.5 g/kg seed; for Post-emergence Crop Selectivity, percentage phytotoxicity, Wheat − CQC: without safener cloquintocet-mexyl (CQC)
Text: Test—Glasshouse Assay for Crop Safety.
Seeds of the Winter Wheat variety ‘Hereward’ were seed treated with a wettable powder formulation of the cereal herbicide safener, cloquintocet mexyl, at a rate of 0.5 grams per kilogram of dry seed prior to the initiation of glasshouse testing. Three seeds were sown per 1.5 inch plastic pot into a sandy loam soil at a depth of 1 cm, 8 days prior to application of the test compounds and was watered and grown under controlled conditions in a glasshouse (at 24/16° C., day/night; 14 hours light; 65% humidity). The plants were sprayed Post-emergence with an aqueous spray solution derived from the formulation of the technical active ingredient in acetone/water (50:50) solution containing 0.5% Tween 20 (polyoxyethelyene sorbitan monolaurate, CAS RN 9005-64-5).
The test plants were then grown in a glasshouse under controlled conditions (at 24/16° C., day/night; 14 hours light; 65% humidity) and watered twice daily. After 13 days for pre and post-emergence, the test was evaluated (100=total damage to plant; 0=no damage to plant).

[4] = post-emergence, 360 h, post-emergence, assessed visually 15 DAA, read-out: Post-emergence herbicidal activity (percentage phytotoxicity) LOLPE POST
[5] = pre-emergence, 480 h, pre-emergence, assessed visually 20 DAA, read-out: Pre-emergence herbicidal activity (percentage phytotoxicity) LOLPE PRE
[6] = post-emergence, 360 h, post-emergence, assessed visually 15 DAA, read-out: Post-emergence herbicidal activity (percentage phytotoxicity) ALOMY POST
[7] = pre-emergence, 480 h, pre-emergence, assessed visually 20 DAA, read-out: Pre-emergence herbicidal activity (percentage phytotoxicity) ALOMY PRE
[8] = post-emergence, 360 h, post-emergence, assessed visually 15 DAA, read-out: Post-emergence herbicidal activity (percentage phytotoxicity) AVEFA POST
[9] = pre-emergence, 480 h, pre-emergence, assessed visually 20 DAA, read-out: Pre-emergence herbicidal activity (percentage phytotoxicity) AVEFA PRE
[10] = post-emergence, 360 h, post-emergence, assessed visually 15 DAA, read-out: Post-emergence herbicidal activity (percentage phytotoxicity) ECHCG POST
[11] = pre-emergence, 480 h, pre-emergence, assessed visually 20 DAA, read-out: Pre-emergence herbicidal activity (percentage phytotoxicity) ECHCG PRE

SMILES	pest or weed control at 250 g/ha (Lolium perenne (LOLPE); [4]) [%]	pest or weed control at 250 g/ha (Lolium perenne (LOLPE); [5]) [%]	pest or weed control at 250 g/ha [1, 6] [%]	pest or weed control at 250 g/ha [1, 7] [%]	pest or weed control at 250 g/ha (Avena fatua (AVEFA); [8]) [%]	pest or weed control at 250 g/ha (Avena fatua (AVEFA); [9]) [%]	pest or weed control at 250 g/ha [2, 10] [%]	pest or weed control at 250 g/ha [2, 11] [%]	Post-emergence Crop Selectivity, percentage phytotoxicity, Wheat +CQC [3] [%]	Post-emergence Crop Selectivity, percentage phytotoxicity, Wheat − CQC [3] [%]
Cc1cc(-n2cc(Cl)cn2)cc(C)c1C1C(=O)CC(CC(=O)NC(C)(C)C)C1=O (stereo not drawn) [Compound A67, N-tert-butyl-2-[3-[4-(4-chloropyrazol-1-yl)-2,6-dimethyl-phenyl]-2,4-dioxo-cyclopentyl]acetamide]	70	90	80	100	80	90	100	90	0	70
Cc1cc(-n2cc(Cl)cn2)cc(C)c1C1C(=O)CC(CC(=O)NC2(c3ccccn3)CC2)C1=O (stereo not drawn) [Compound A73]	40	30	70	70	80	10	90	90	20	80
Cc1cc(C)c(C2C(=O)CC(CC(=O)NCCc3ccccc3)C2=O)c(C)c1 (stereo not drawn) [Compound A1, 2-[2,4-dioxo-3-(2,4,6-trimethylphenyl)cyclopentyl]-N-phenethyl-acetamide]	80	100	60	60	60	60	80	90	0	60
Cc1cc(C)c(C2C(=O)CC(CC(=O)NCC(C)(C)C)C2=O)c(C)c1 (stereo not drawn) [Compound A14]	80	80	80	90	70	70	80	100	10	60
Cc1cc(C)c(C2C(=O)CC(CC(=O)N3CCCCC3)C2=O)c(C)c1 (stereo not drawn) [Compound A22]	80	70	80	60	60	30	90	100	50	60
CCC(C)(C)NC(=O)CC1CC(=O)C(c2c(C)cc(C)cc2C)C1=O (stereo not drawn) [Compound A27]	80	80	80	70	80	70	80	80	20	30
C#Cc1cc(C)c(C2C(=O)CC(CC(=O)NC(C)(C)C)C2=O)c(C)c1 (stereo not drawn) [Compound A43]	90	100	100	100	90	100	90	100	50	90
Cc1cc(-n2cc(Cl)cn2)cc(C)c1C1C(=O)CC(CC(=O)NC2CCCC2)C1=O (stereo not drawn) [Compound A70]	70	70	90	70	70	70	90	100	20	70
Cc1cc(C)c(C2C(=O)CC(CC(=O)NCC3CC3)C2=O)c(C)c1 (stereo not drawn) [Compound A19]	90	90	90	90	80	70	80	90	40	80
Cc1cc(C)c(C2C(=O)CC(CC(=O)NCc3ccccc3)C2=O)c(C)c1 (stereo not drawn) [Compound A4]	90	80	50	50	80	30	80	70	10	60
CCC(C)NC(=O)CC1CC(=O)C(c2c(C)cc(C)cc2C)C1=O (stereo not drawn) [Compound A3]	90	100	90	100	90	90	90	100	10	60
CCCNC(=O)CC1CC(=O)C(c2c(C)cc(C)cc2C)C1=O (stereo not drawn) [Compound A26]	90	100	80	80	80	70	80	80	40	70
Cc1cc(C)c(C2C(=O)CC(CC(=O)NC3CCCC3)C2=O)c(C)c1 (stereo not drawn) [Compound A21]	80	80	80	70	70	50	80	80	0	60
Cc1cc(-c2ncc(F)cn2)cc(C)c1C1C(=O)CC(CC(=O)NCc2cccc(C(F)(F)F)c2)C1=O (stereo not drawn) [Compound A145]	90	100	100	100	100	100	100	100	30	60
Cc1cc(C)c(C2C(=O)CC(CC(=O)NCC(C)C)C2=O)c(C)c1 (stereo not drawn) [Compound A5]	80	100	90	100	80	70	80	100	10	80
